This passage reports EC50 and Ki results from article PMC2869248 (Psychopharmacology, 2010).

pEC50, pKi: −log10 of the molar value.

The target of assay [1] is T1, cloned human KOR (hKOR), kappa-opioid receptor (Homo sapiens, UniProt P41145). Put plainly: biochemical.
For assay [2], the target named is T1, cloned human KOR (hKOR), kappa-opioid receptor.

What is called pEC50 is the negative decadic logarithm of the EC50, by convention in mol/L. Read a high pEC50 as a low EC50. In general, pKi refers to the negative decadic logarithm of the Ki, by convention in mol/L.

T1 sequence (P41145 whole entry): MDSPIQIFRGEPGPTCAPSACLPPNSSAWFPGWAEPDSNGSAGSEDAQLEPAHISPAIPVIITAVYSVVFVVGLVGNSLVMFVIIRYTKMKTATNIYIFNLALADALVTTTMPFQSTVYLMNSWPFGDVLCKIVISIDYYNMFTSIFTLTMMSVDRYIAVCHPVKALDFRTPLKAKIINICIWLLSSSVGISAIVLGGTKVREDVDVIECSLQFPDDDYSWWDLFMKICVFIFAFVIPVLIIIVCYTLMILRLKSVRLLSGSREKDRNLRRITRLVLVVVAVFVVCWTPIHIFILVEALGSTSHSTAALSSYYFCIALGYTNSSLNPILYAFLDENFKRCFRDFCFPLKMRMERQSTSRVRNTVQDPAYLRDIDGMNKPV

In the case of `CNC1(c2ccccc2Cl)CCCCC1=O` (centres unmarked) [ketamine], in assay [1], the pEC50 was 4.54. Also, the pKi in assay [2] was 4.60.
